Assay results from patent US20250041307A1, “Uses of Bicyclic Compounds for the Treatment of Diseases” (Athira Pharma, Inc., priority 2021, published 2025).

How the values were obtained:
[1] = test system: MDCK cells; assay: Cell scattering behavior assay; type: cell-based; parameters: key: − indicates that the compound failed to significantly promote cell scattering behavior; + indicates maximum potency at or above 100 nM; ++ indicates maximum potency at or above 10 nM; +++ indicates maximum potency at or above 1 nM; ++++ indicates maximum potency at or above 0.1 nM; conditions: with 5 ng/mL HGF, 24 hours, normalized particle count compared to HGF treatment alone
Summary of the method: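 MDCK cells starved 2 h in serum-free DMEM, then treated 24 h at 37 °C with compounds plus 5 ng/mL HGF. Cells were ethanol-fixed, WGA488-stained and imaged. Scattering was scored as particle count normalized to stained area, with activity taken as a statistical increase in normalized particle count over HGF alone.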

[2] = test system: hepatocyte (HepG2) cell cultures; assay: Cytotoxicity assay (LDH release); type: cell-based; conditions: HepG2 cells, 48 hours, 0.1 to 100 μM
Description: This experiment was designed to obtain a preliminary assessment of cytotoxicity.
HepG2 cells were plated in 96-well cell culture plates and allowed to attach overnight at 37° C., 5% CO2 in EMEM+10% FBS. Treatments were made in complete media (EMEM+10% FBS) and included a dilution series of test compounds from 0.1 to 100 μM. Known cytotoxin cerivastatin was used as a positive assay control and prepared at a final concentration of 0.5 μM.
Growth media was replaced with treatment media (EMEM+10% FBS containing test compound dissolved in DMSO) and cells were incubated with test compounds for 48 hours. At the end of the incubation period, supernatant media from each well was transferred to a new plate and LDH assay working solution was added. LDH assay solution undergoes a colorimetric reaction in proportion to the amount of lactate dehydrogenase (an intracellular protein that was only found in the media in the presence of lysed cells) in the media. Color reaction was quantified by measurement of absorbance at a wavelength of 490 nm.
The signal range of the assay was determined by no manipulation in a negative control treatment and full lysis of all cells in a lysis control sample. Compounds that increase the level of cytotoxicity more than 20% above negative control samples were considered cytotoxic in this assay.

[3] = In vitro stability in rat plasma; type: in vitro ADME; conditions: 5 μM, 37° C.
Description: (§1) Bioavailability can be estimated by compound stability when exposed to conditions in the body. As an initial assessment of stability properties in a variety of conditions present in animals, exemplary compounds were tested for stability in a battery of simulated body compartments. Compounds were tested for stability in the following solutions: simulated gastric fluid (SGF: 34.2 mM NaCl, pH 1.2), simulated gastric fluid with the digestive enzyme pepsin (SGF+Enzyme: SGF with 3.2 mg/ml pepsin), simulated intestinal fluid with the mixture of enzymes in porcine pancreatin (SIF+Enzyme: 28.7 mM NaH2PO4, 105.7 mM NaCl, pH 6.8, 10 mg/ml pancreatin), rat plasma, and human plasma.
(§2) Test compounds were incubated at a final concentration of 5 μM in the above solutions at 37° C. with samples removed at the following time points: 0, 1, 2, and 4 hours. Reactions were stopped and prepared for quantification by addition of excess quench solution containing an internal standard (acetonitrile, 200 ng/mL bucetin). Test compound and internal standard in each sample was quantified by LC-MS/MS, and after internal normalization to bucetin, test compound concentration was expressed as a percentage of concentration at the 0-hour time point. Stability in the relevant test solution was then determined by the percent remaining at the 4-hour time point.

[4] = In vitro stability in human plasma; type: in vitro ADME; conditions: 5 μM, 37° C.
Description: as §1, §2

[5] = In vivo tissue distribution; parameters: species or system Sprague-dawley rats; conditions: rat, 10 minutes post administration
Description: The rate of distribution to target tissues is an important feature of therapeutic molecules. Tissue distribution of exemplary compounds was performed in mixed-sex Sprague-dawley rats. Test compounds were delivered via tail vein injection (IV) and tissues were collected at Tmax (10 minutes post administration). Animals were deeply anesthetized with isoflurane and whole blood was collected from the right atrium and processed by centrifugation to produce plasma. Animals were then fully perfused with PBS administered to the left ventricle to prevent blood contamination of tissues.
Tissues were collected and homogenized, and compound content in the target tissue was quantified by LC-MS/MS. Tissue distribution rates were determined by dividing the tissue concentration of compound by the plasma concentration and multiplying by 100.

Structure (SMILES) | Potency [1] | Cytotoxicity [2] | Rat Plasma, compound remaining after 4 hours [3] | Human Plasma, compound remaining after 4 hours [4] | Tissue Distribution (% Plasma exposure at 10 min post IV dose) Brain [5] | Tissue Distribution (% Plasma exposure at 10 min post IV dose) Cerebellum [5] | Tissue Distribution (% Plasma exposure at 10 min post IV dose) Cortex [5] | Tissue Distribution (% Plasma exposure at 10 min post IV dose) Hippocampus [5] | Tissue Distribution (% Plasma exposure at 10 min post IV dose) Muscle [5] | Tissue Distribution (% Plasma exposure at 10 min post IV dose) Sciatic Nerve [5]
CCC(C)CN1CC2N(C(=O)c3ccc(C(F)(F)F)cc3)CCC(=O)N2[C@@H](C)C1=O (some centres unmarked) [Compound 1a] | ++++ (++++ indicates maximum potency at or above 0.1 nM) | ++++ (++++ indicates non-toxic at 100 μM) | ++ (++ indicates 40-79% compound remaining after 4 hours) | ++ (++ indicates 40-79% compound remaining after 4 hours) | ++ (++ indicates distribution between 5 and 39%) | ++ (++ indicates distribution between 5 and 39%) | ++ (++ indicates distribution between 5 and 39%) | ++ (++ indicates distribution between 5 and 39%) |  | 
CCC(C)CN1CC2N(C(=O)c3ccc(OC(F)F)cc3)CCC(=O)N2[C@@H](C)C1=O (some centres unmarked) [Compound 2a] | + (+ indicates maximum potency at or above 100 nM) | ++++ (++++ indicates non-toxic at 100 μM) | ++ (++ indicates 40-79% compound remaining after 4 hours) | ++ (++ indicates 40-79% compound remaining after 4 hours) | ++ (++ indicates distribution between 5 and 39%) | + (+ indicates distribution between 0.05 and 5%) | ++ (++ indicates distribution between 5 and 39%) | ++ (++ indicates distribution between 5 and 39%) | ++++ (++++ indicates distribution above 70%) | ++++ (++++ indicates distribution above 70%)
CCC(C)CN1CC2N(Cc3ccc(C(F)(F)F)cc3)CCC(=O)N2[C@@H](C)C1=O (some centres unmarked) [Compound 5a] | ++++ (++++ indicates maximum potency at or above 0.1 nM) | ++++ (++++ indicates non-toxic at 100 μM) | ++ (++ indicates 40-79% compound remaining after 4 hours) | ++ (++ indicates 40-79% compound remaining after 4 hours) | ++++ (++++ indicates distribution above 70%) | ++++ (++++ indicates distribution above 70%) | ++++ (++++ indicates distribution above 70%) | ++++ (++++ indicates distribution above 70%) |  | 
CCC(C)CN1CC2N(Cc3ccc(OC(F)F)cc3)CCC(=O)N2[C@@H](C)C1=O (some centres unmarked) [Compound 6a] | +++ (+++ indicates maximum potency at or above 1 nM) | ++++ (++++ indicates non-toxic at 100 μM) | +++ (+++ indicates 80-99% compound remaining after 4 hours) | ++ (++ indicates 40-79% compound remaining after 4 hours) | ++ (++ indicates distribution between 5 and 39%) | ++ (++ indicates distribution between 5 and 39%) | ++ (++ indicates distribution between 5 and 39%) | ++ (++ indicates distribution between 5 and 39%) | ++++ (++++ indicates distribution above 70%) | ++++ (++++ indicates distribution above 70%)
CCC(C)CN1CC2N(Cc3ccc(O)nc3)CCC(=O)N2[C@@H](C)C1=O (some centres unmarked) [Compound 7a] | ++ (++ indicates maximum potency at or above 10 nM) | ++++ (++++ indicates non-toxic at 100 μM) |  |  | + (+ indicates distribution between 0.05 and 5%) | + (+ indicates distribution between 0.05 and 5%) | + (+ indicates distribution between 0.05 and 5%) | + (+ indicates distribution between 0.05 and 5%) | ++ (++ indicates distribution between 5 and 39%) | ++++ (++++ indicates distribution above 70%)
CCC(C)CN1CC2N(C(=O)c3ccc(O)cc3)CCC(=O)N2[C@@H](C)C1=O (some centres unmarked) [Compound 8a] | +++ (+++ indicates maximum potency at or above 1 nM) | ++++ (++++ indicates non-toxic at 100 μM) | ++++ (++++ indicates 100% compound remaining after 4 hours) | ++ (++ indicates 40-79% compound remaining after 4 hours) |  |  |  |  |  | 
CCC(C)CN1CC2N(C(=O)c3ccc(F)cc3)CCC(=O)N2C(C)C1=O (centres unmarked) [Compound 11, 1-(4-fluorobenzoyl)-6-methyl-8-(2-methylbutyl)hexahydro-4H-pyrazino[1,2-a]pyrimidine-4,7(6H)-dione] | ++ (++ indicates maximum potency at or above 10 nM) | ++++ (++++ indicates non-toxic at 100 μM) | ++++ (++++ indicates 100% compound remaining after 4 hours) | +++ (+++ indicates 80-99% compound remaining after 4 hours) | ++ (++ indicates distribution between 5 and 39%) | + (+ indicates distribution between 0.05 and 5%) | + (+ indicates distribution between 0.05 and 5%) | + (+ indicates distribution between 0.05 and 5%) |  | ++ (++ indicates distribution between 5 and 39%)
CCCCN1CC2N(C(=O)c3ccc(OC(F)F)cc3)CCC(=O)N2C(C)C1=O (centres unmarked) [Compound 17] | − | ++++ (++++ indicates non-toxic at 100 μM) | ++ (++ indicates 40-79% compound remaining after 4 hours) | +++ (+++ indicates 80-99% compound remaining after 4 hours) |  |  |  |  |  | 
CC1C(=O)N(CCC2CCCC2)CC2N(C(=O)c3ccc(C(F)(F)F)cc3)CCC(=O)N12 (centres unmarked) [Compound 19] | +++ (+++ indicates maximum potency at or above 1 nM) | ++++ (++++ indicates non-toxic at 100 μM) | +++ (+++ indicates 80-99% compound remaining after 4 hours) | +++ (+++ indicates 80-99% compound remaining after 4 hours) |  |  |  |  |  | 
